Tests used:
[1] = test system: monkey eye; assay: IOP test after a single topical ocular instillation in monkeys (Example 1); assay type: in vivo, cynomolgus monkeys; conditions: 0.0005% solution, 35 μL/eye; for intraocular pressure lowering effect (in words): compared with vehicle-treated contralateral eye, Student's t-test
From the text: This Example is an IOP test using the monkey eye in which about one tenth the clinical dose of latanoprost is compared in IOP reduction with the same dose of 15-keto latanoprost.
The intraocular pressure lowering effects of the 0.0005% solution of 13,14-dihydro-15-keto-17-phenyl-18,19,20-trinor-PGF2α-isopropyl ester (15-keto-latanoprost) and the 0.0005% solution of 13,14-dihydro-17-phenyl-18,19,20-trinor-PGF2α-isopropyl ester (latanoprost) were compared following a single, topical ocular instillation in monkeys.
The solution containing 15-keto-latanoprost or latanoprost at 0.0005% was prepared with the following vehicle. Composition of the vehicle^1) (/mL): NaCl (4.1 mg), NaH2PO4—H2O (4.6 mg), Na2HPO4—2H2O (5.94 mg), Benzalkonium Chloride (0.2 mg) and water for injection
Five male cynomolgus monkeys purchased from Kasyo Co., Ltd. were used. These monkeys were housed individually in cages for monkeys in a room which was maintained at room temperature of 24±1° C., relative humidity of 55±10%, ventilation rate of about 12 times/hour and 12-hour light-dark cycle (fluorescent lighting: 8:00 a.m. to 8:00 p.m.). The animals were given food pellets for monkeys (PS, Oriental Yeast Co., Ltd.), vegetables and fruits, and allowed free access to tap water from an automatic dispenser. The healthy animals without abnormalities in the anterior segment of the eye were used in this study.
Five monkeys were divided into 2 groups of the group 1 (3 monkeys) and group 2 (2 monkeys). […]
The animals were systemically anesthetized by an intramuscular injection of 5 mg/kg of ketamine hydrochloride (Ketalar®50, Sankyo Co., Ltd.), and the anterior segment of both eyes was anesthetized by a instillation of 0.4% oxybuprocaine hydrochloride (Benoxil® 0.4% solution, Santen Pharmaceutical Co., Ltd.). The animals were fixed in a sitting position, and the intraocular pressure was measured by use of an applanation pneumatonograph (Alcon Japan Ltd.) before, and 2, 4, 8, 12 and 24 hours after the instillation. […]
The data were statistically analyzed with Student's t-test.

[2] = Ocular side effects of topical application (stated, no method described); assay type: in vivo; conditions: 15-keto latanoprost at the dosages described herein
[3] = test system: monkey eye; assay: IOP after additional instillation 12 hours after instillation of 0.005% latanoprost in monkeys (Example 2); assay type: in vivo, cynomolgus monkeys; conditions: 30 μL; for effect on IOP of additional instillation, compared with 0.005% latanoprost alone: 0.0005% solution, instilled 12 hours after instillation of 0.005% latanoprost, IOP followed to 32 hours
From the text: This Example illustrates the employment of a low dose of 15-keto latanoprost for maintaining a low IOP level following single administration of another IOP reducing agent for obtaining a rapid drop in IOP.
The changes of IOP in 3 different treatment groups were compared to investigate the significance of the presence of 15-keto acid of latanoprost, a 13,14-dihydro-15-keto type metabolite, in maintaining the IOP lowering effect observed after instillation of latanoprost.
15-keto-latanoprost and latanoprost which were synthesized in Ueno Institute for Medical Science were used.
Six male cynomolgus monkeys (body weight: 3.2-3.8 kg) were used. These monkeys were housed individually in cages for monkeys in a monkey rearing room which was maintained at room temperature of 24±1° C., relative humidity of 55±10%, and ventilation of about 12 times/hour and a 12-hour light-dark cycle (fluorescent lighting: 8:00 a.m. to 8:00 p.m.). The animals were given solid food for monkeys (PS, Oriental Yeast Co., Ltd.), vegetables and fruits, and allowed free access to tap water from an automatic dispenser. The healthy animals without abnormalities in the anterior segment were used in this study.
0.0005% and 0.005% latanoprost eye drops and 0.0005% 15-keto-latanoprost eye drops were prepared with a vehicle consisting of the following composition. The composition of the vehicles in 1 mL was as follows: sodium chloride (4.1 mg), sodium hydrogenphosphate-1H2O (4.6 mg), disodium hydrogenphosphate-2H2O (5.94 mg), benzalkonium chloride (0.200 mg) and water for injection (1 mL).
In the present study, changes in IOP after instillation of 0.005% latanoprost alone at the clinical concentration were compared with those in IOP after additional instillation of 0.0005% latanoprost or 0.0005% 15-keto-latanoprost 12 hours after instillation of 0.005% latanoprost to investigate the significance of the presence of a 13,14-dihydro-15-keto type metabolite in maintaining the IOP lowering effect observed after instillation of latanoprost.
The following 3 treatments were given to the right eye of monkeys at the intervals of at least 10 days. […]
After the ocular surface of monkeys was anesthetized with 0.4% oxybuprocaine hydrochloride (Benoxil® 0.4% solution, Santen Pharmaceutical Co., Ltd.) under i.m. systemic anesthesia with 5-7.5 mg/kg of ketamine hydrochloride, IOP was measured with an applanation pneumatonograph (Alcon Japan Ltd.). IOP was measured before instillation and at 4, 8, 12, 16, 20, 24, 28 and 32 hours after instillation of 0.005% latanoprost.

[4] = latanoprost at its clinical concentration; cited from earlier work
[5] = single instillation of 0.005% latanoprost (clinical concentration), right eye

Row | Compound | intraocular pressure lowered as compared with the pre-treatment value ([1]; 8 hours after the instillation, n=5) | intraocular pressure lowering effect (in words) [1] | ocular side effects (iridic pigmentation, initial IOP spike, hyperemia) [2] | effect on IOP of additional instillation, compared with 0.005% latanoprost alone [3] | ocular side effects (iris pigmentation, IOP spike, hyperemia) [4] | time at which intraocular pressure returned to the predosing level [3, 5] | time of maximum reduction of intraocular pressure after instillation [3, 5]
1 | CC(C)OC(=O)CCC/C=C\C[C@@H]1[C@@H](CCC(=O)CCc2ccccc2)[C@H](O)C[C@@H]1O [15-keto-latanoprost, 13,14-dihydro-15-keto-17-phenyl-18,19,20-trinor-PGF2α-isopropyl ester] | 2.4 mmHg | statistically significant | does not cause iridic pigmentation, an initial IOP spike nor any hyperemia | maintained at significantly low levels |  |  | 
2 | CC(C)OC(=O)CCC/C=C\C[C@@H]1[C@@H](CC[C@@H](O)CCc2ccccc2)[C@H](O)C[C@@H]1O [latanoprost, 13,14-dihydro-17-phenyl-18,19,20-trinor-PGF2α-isopropyl ester] |  | did not lower the intraocular pressure |  | did not affect IOP | can cause pigmentation of the iris, a mild IOP spike and/or mild hyperemia | 24 h | 12 h

From US6596765B2, “Treatment of ocular hypertension and glaucoma” (Sucampo AG, priority 2000, dated 2003)
